Values quoted from earlier work in patent publication US20160354348A1, “METHODS FOR PROPHYLATIC APPETITE SUPPRESSION” (Orexigen Therapeutics, Inc., priority 2005, published 2016).
Like-named read-outs stand apart in the source and are kept apart here.

Tests used:
[1] = 20-25° C.
[2] = Colosimo & De Michele 1999

Row | SMILES | t1/2 in erythrocytes (erythrocytes) | Protein bound (in vivo) [%] | Half-life (t1/2) in plasma | Half-life (t1/2) in plasma (listed as Zonisamide) [h] | Solubility in aqueous acid [1] | Elimination half-life (T1/2) [2]
1 | NS(=O)(=O)Cc1noc2ccccc12 [zonisamide, 1,2-benzisoxazole-3-methanesulfonamide] | about 105 hours | 40 | about 63 hours | 63 to 69 | about 200 mg/ml | 
2 | N[C@@H](Cc1ccc(O)c(O)c1)C(=O)O [levodopa] |  |  |  |  |  | about 1.5 hours
